Assay results as given in US20250154110A1, “CLAUDIN INHIBITORS AND METHODS OF USE THEREOF” (The University of Chicago, priority 2021, published 2025).

Assays:
claudin-15 = target: T1, claudin-15 (Homo sapiens, UniProt P56746); test: TER across MDCK I monolayers induced to express claudin-15; assay type: cell-based; conditions: FIG. 20; concentrations lower than 100 μM; resistance normalized to vehicle
T1 construct: expressed in transfected cells; host or cells: Madin-Darby Canine Kidney (MDCK) I cells, doxycycline-induced expression
T1 sequence (P56746 1-228): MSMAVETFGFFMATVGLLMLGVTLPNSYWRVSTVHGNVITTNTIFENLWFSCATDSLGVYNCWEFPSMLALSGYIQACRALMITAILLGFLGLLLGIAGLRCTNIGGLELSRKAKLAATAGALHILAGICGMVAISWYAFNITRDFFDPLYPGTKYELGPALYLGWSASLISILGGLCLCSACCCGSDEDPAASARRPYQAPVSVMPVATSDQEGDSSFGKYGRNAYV
Text: Electrical measures are used to assess the flow of ions through the claudin channels. The most commonly used measurement in the tight junction field is transepithelial electrical resistance (TER). These assays can be performed using epithelial cells grown on permeable supports (in vitro) or using intact tissue from the GI tract mounted across apertures (ex vivo).
Two different Madin-Darby Canine Kidney (MDCK) I cell lines were used, which respectively express either claudin-2 or -15 when grown in the presence of doxycycline. These cells are useful in assessing the specificity of molecule effects on claudin-2 versus claudin-15. Caco-2 BBe epithelial cells, which normally express claudin-2 and some claudin-15, were also used to better understand the utility of these molecules in blocking claudins in the gastrointestinal (GI) tract. Caco-2 BBe and MDCK cells were grown on 0.33 cm^2 polycarbonate semi-permeable membranes with 0.4 μm pores (Corning Life Sciences, Corning, NY) and used 4 days (MDCK) or 3 weeks (Caco-2 BBe) after plating. […]
Molecules were solubilized in vehicle (dimethylsulfoxide (DMSO)) and applied to both sides of the epithelial monolayer after first measuring TER at t=0 (FIGS. 17 and 18). […] Readings were performed for at least 3 hours after application to rule out epithelial cell injury, which would reduce TER. […]

mouse mucosa = test: TER of mouse duodenum mucosa mounted in Ussing chambers; conditions: FIG. 22, 100 μM added bilaterally, versus vehicle, P<0.01
Text: The same techniques to measure TER and ion selectivity also apply to intact mucosa isolated from mice. The only significant difference is the tissue was first stripped of its muscularis propria and mounted in chambers, known as Ussing chambers. The same techniques were used to measure ion selectivity. Identical solutions were used, but also bubbled with 100% oxygen.
For TER measurements, duodenum segments were stripped of muscularis propria and mounted in Ussing chambers, and equilibrated in oxygenated HBSS for 15 min at 37° C. Vehicle control solution (DMSO) or the same solution containing 100 μM NSC 67736 were then added bilaterally. TER was recorded using current clamp pulses from 0 to 10 μA and Vrev was recorded by clamping current to 0. Electrode bridges were made 3% agarose KCl.

[1] = system: colonoids derived from a patient with inflammatory bowel disease; test: Organoid shrinking assay in colonoids after Na+ to NMDG+ buffer exchange; assay type: cell-based, human; conditions: FIG. 25
Text: For this study, organoids derived from human colon biopsies (colonoids) were first equilibrated in steady-state with Na^+ as the predominant extracellular cation. Extraluminal Na^+ was then replaced with N-methyl-D-glucamine (NMDG^+) by buffer exchange. The buffer exchange generates a large concentration gradient for Na^+ to diffuse out of the organoid lumen. […] See, for example, FIG. 24. As a result, the net Na^+ flux across tight junctions creates an osmotic gradient for water to exit the organoid through tight junctions, causing organoids to shrink. The size of organoids is measured by time-lapse microscopy, and the rate and extent of shrinkage can be determined as an assay of claudin permeability. Reduced rate and extent of shrinkage indicates reduced permeability.
Colonoids derived from a patient with inflammatory bowel disease were first equilibrated in steady-state with Na^+ containing media. Equilibrated colonoids were treated with NSC 73446 or a vehicle control and the extraluminal Na^+ was then replaced with N-methyl-D-glucamine (NMDG^+) by buffer exchange. As is apparent from the results set forth in FIG. 25, water transport across human epithelium was modulated by NSC 73446.

SMILES: O=C(Nc1cccc(C(=O)Nc2cc(C3=NCCN3)cc(C3=NCCN3)c2)c1)Nc1cccc(C(=O)Nc2cc(C3=NCCN3)cc(C3=NCCN3)c2)c1 [NSC 53299]
- dose response of TER (claudin-15): effective at low micromolar concentrations

SMILES: Cl.Cl.O=C(Nc1ccc(C(=O)Nc2ccc(C3=NCCCN3)cc2)cc1)Nc1ccc(C2=NCCCN2)cc1 [NSC 67736]
- change in TER (barrier function) in mouse mucosa (mouse mucosa): increases barrier function

SMILES: CCCNC(=O)c1cc(NC(=O)Nc2ccc(C3=NCCCN3)cc2)cc(NC(=O)Nc2ccc(C3=NCCCN3)cc2)c1.Cl [NSC 73446]
- water transport across human epithelium ([1]; inferred from colonoid size change): reduces water transport out of the lumen of the colonoid
- colonoid size change (rate and extent of shrinkage) ([1]; time-lapse microscopy, relative to vehicle control): minimizes the rate and extent of colonoid size decrease
